Calls of active or inactive are those of the source.
Key:
[1] = biological target: T1, Low molecular weight phosphotyrosine protein phosphatase (Homo sapiens, UniProt P24666); experiment: inhibition of LMPTP-A enzymatic activity – biochemical, OMFP substrate, fluorescence intensity, set 2, dose response (AID 743307); format: functional
T1 sequence (P24666 whole entry): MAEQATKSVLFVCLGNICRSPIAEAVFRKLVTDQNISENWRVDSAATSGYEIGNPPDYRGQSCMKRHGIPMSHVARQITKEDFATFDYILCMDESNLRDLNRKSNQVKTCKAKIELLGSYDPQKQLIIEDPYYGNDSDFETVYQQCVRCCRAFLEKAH

[2] = biological target: T1, Low molecular weight phosphotyrosine protein phosphatase; experiment: inhibition of human LMPTP enzyme activity – biochemical, absorbance, pNPP substrate, LMPTP-A isoform, set 2, orthogonal assay, dose response (AID 743308); format: functional
[3] = biological target: RNA-editing ligase 1, mitochondrial (Trypanosoma brucei brucei, UniProt P86926); experiment: inhibition of trypanosome RNA editing ligase – biochemical, fluorescence, Trypanosoma brucei, dose response (AID 1117295); format: functional
[4] = biological target: Cytochrome P450 2C19 (Homo sapiens, UniProt P33261); experiment: Cytochrome panel assay with activity outcomes. Panel member name: p450-cyp2c19 Compounds with AC50 equal or less than 10 uM are considered active; format: functional
[5] = biological target: Cytochrome P450 2D6 (Homo sapiens, UniProt P10635);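 also: CYP2D6 member of a cytochrome P450 panel assay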
[6] = biological target: Glutathione-S-transferase (Schistosoma japonicum, UniProt Q26513); experiment: GST-antibody interaction or FRET quenching – biochemical, TR-FRET, artefact control for Vif-APOBEC3G degradation inhibitor project, dose response (AID 1117362); format: functional
[7] = biological target: Cytochrome P450 3A4 (Homo sapiens, UniProt P08684);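 also: CYP3A4 tested as one member of a cytochrome P450 panel screen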
[8] = IC50 of Artemis nuclease activity blockers – biochemical, fluorescence intensity, dose response (AID 720701); format: functional;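 also: Artemis endonuclease enzyme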
[9] = biological target: Caspase-8 (Homo sapiens, UniProt Q14790); experiment: inhibitors of purified CASP8 protease – biochemical, Z-IETD-R110 fluorescence, cherry-picked samples, selectivity assay for caspase-6 inhibitor project, dose response (AID 743294)
[10] = biological target: T2, Mannose-6-phosphate isomerase (Homo sapiens, UniProt P34949); experiment: MPI inhibition at elevated mannose 6-phosphate – biochemical, fluorescence intensity, high mannose 6-phosphate, primary screen (AID 1220)
T2 sequence (P34949 whole entry): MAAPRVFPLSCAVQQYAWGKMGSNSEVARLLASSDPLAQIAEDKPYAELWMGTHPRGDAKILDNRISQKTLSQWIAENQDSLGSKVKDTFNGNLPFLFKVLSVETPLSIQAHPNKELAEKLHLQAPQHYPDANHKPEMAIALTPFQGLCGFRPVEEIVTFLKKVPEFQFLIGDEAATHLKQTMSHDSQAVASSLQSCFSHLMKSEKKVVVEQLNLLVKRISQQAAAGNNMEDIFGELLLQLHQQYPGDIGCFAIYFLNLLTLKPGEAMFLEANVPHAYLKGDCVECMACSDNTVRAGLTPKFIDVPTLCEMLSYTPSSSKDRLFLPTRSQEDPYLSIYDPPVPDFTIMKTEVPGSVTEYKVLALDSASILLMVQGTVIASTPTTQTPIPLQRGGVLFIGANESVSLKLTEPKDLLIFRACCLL

[11] = biological target: Caspase-9 (Homo sapiens, UniProt P55211); experiment: inhibitors of purified CASP9 protease – biochemical, fluorescence, plate reader, cherry-picked samples, selectivity assay for caspase-6 inhibitor project, dose response (AID 743293)
[12] = biological target: T3, Protein RecA (Mycobacterium tuberculosis, UniProt P9WHJ3); experiment: Fluorescence Cell-Free Homogeneous Dose Retest to Identify Inhibitors of RecA-Intein Splicing Activity. [Related pubchem assays (depositor defined):AID2097, AID2223, AID489010, AID492950]; format: functional
T3 sequence (P9WHJ3 whole entry): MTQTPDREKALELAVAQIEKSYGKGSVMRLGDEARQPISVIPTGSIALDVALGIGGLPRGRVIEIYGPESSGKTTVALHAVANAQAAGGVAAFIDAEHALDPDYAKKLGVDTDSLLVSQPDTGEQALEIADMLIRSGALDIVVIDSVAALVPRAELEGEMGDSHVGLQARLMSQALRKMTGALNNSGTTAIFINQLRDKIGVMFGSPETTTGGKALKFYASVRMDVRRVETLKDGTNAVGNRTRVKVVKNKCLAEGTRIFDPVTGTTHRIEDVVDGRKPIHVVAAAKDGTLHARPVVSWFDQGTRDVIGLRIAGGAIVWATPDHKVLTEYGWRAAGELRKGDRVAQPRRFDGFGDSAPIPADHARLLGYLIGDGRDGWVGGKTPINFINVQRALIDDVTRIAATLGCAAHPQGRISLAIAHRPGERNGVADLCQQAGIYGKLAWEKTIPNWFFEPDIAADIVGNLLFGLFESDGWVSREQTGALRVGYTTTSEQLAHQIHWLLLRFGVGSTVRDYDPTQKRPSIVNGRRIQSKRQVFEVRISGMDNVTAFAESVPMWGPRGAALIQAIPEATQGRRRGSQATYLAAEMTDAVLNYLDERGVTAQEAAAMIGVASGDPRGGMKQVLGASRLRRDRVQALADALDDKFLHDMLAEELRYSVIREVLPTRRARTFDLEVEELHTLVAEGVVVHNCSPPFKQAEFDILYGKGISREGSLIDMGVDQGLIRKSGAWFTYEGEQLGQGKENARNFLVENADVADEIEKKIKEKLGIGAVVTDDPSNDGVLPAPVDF

[13] = Luminescence-based cell-based high throughput dose response assay to identify activators of the DAF-12 from the parasite S. stercoralis (ssDAF-12).; format: functional
[14] = biological target: T4, Oxysterols receptor LXR-beta (Homo sapiens, UniProt P55055); experiment: LXR agonists, Gal4 luciferase reporter, dose response, counter-screen for ssDAF-12 agonist project, cell-based, luminescence, HEK293, S. stercoralis campaign (AID 720737); format: functional; settings: read-out: IC50 (the source's name)
T4 sequence (P55055 whole entry): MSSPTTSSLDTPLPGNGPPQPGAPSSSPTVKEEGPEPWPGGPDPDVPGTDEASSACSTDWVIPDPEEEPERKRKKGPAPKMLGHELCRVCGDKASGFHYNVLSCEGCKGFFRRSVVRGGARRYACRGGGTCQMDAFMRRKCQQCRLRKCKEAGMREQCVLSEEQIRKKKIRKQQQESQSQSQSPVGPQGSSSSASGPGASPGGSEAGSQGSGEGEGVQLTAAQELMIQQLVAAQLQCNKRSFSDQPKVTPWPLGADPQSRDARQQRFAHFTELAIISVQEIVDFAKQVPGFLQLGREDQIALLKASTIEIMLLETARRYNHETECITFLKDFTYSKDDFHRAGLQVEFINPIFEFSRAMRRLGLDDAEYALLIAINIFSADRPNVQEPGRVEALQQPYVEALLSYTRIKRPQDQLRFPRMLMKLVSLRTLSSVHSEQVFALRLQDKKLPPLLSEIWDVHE

[15] = biological target: T5, Replicative DNA helicase DnaB (Mycobacterium tuberculosis, UniProt P9WMR3); experiment: DnaB intein splicing inhibitors, dose response, biochemical, cell-free fluorescence (AID 449749); format: functional
T5 sequence (P9WMR3 whole entry): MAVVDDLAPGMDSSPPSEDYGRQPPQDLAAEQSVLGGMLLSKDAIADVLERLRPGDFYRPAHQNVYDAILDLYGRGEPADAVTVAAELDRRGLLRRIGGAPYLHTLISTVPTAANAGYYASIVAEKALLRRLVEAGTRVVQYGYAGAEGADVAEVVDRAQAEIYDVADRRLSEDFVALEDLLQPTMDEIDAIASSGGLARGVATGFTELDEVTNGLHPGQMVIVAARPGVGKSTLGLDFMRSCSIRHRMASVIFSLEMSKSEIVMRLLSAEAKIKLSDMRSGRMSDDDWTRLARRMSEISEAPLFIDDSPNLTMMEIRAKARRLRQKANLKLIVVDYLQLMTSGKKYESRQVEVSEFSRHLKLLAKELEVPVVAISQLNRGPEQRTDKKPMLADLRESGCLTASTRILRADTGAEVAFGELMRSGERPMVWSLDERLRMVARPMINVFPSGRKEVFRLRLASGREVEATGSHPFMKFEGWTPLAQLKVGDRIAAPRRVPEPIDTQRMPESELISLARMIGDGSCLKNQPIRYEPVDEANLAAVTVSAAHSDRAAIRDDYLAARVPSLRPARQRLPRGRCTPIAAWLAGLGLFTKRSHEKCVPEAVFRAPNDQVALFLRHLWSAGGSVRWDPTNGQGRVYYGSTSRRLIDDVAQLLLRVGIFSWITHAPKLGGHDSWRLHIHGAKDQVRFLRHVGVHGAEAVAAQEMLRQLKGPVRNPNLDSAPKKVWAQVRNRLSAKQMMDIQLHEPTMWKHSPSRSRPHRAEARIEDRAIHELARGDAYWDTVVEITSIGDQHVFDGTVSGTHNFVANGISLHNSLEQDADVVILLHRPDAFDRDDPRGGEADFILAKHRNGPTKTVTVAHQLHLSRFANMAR

[16] = biological target: T6, Caspase-6 (Homo sapiens, UniProt P55212); experiment: inhibition of CASP6 peptide cleavage – biochemical, VEID-R110 fluorescence, cherry-pick, dose response (AID 720632)
T6 sequence (P55212 whole entry): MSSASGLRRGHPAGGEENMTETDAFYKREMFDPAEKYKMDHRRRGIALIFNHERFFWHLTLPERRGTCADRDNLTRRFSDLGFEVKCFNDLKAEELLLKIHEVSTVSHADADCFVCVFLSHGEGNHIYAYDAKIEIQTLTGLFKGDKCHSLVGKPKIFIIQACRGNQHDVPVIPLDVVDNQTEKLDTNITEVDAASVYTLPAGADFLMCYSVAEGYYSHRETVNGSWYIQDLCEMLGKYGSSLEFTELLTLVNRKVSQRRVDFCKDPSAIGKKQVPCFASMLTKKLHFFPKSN

[17] = biological target: FAD-linked sulfhydryl oxidase ALR (Homo sapiens, UniProt P55789); experiment: ALR-catalysed DTT oxidation blockers – biochemical, H2O2 detection, luminescence, cherry-pick, dose response (AID 493248)
[18] = biological target: T7, Rac GTPase-activating protein 1 (Homo sapiens, UniProt Q9H0H5); experiment: blockers of MgcRacGAP-driven Rac1 GTP hydrolysis – biochemical, ADP Hunter fluorescence, primary and confirmatory, confirmation (AID 624330); format: functional
T7 sequence (Q9H0H5 whole entry): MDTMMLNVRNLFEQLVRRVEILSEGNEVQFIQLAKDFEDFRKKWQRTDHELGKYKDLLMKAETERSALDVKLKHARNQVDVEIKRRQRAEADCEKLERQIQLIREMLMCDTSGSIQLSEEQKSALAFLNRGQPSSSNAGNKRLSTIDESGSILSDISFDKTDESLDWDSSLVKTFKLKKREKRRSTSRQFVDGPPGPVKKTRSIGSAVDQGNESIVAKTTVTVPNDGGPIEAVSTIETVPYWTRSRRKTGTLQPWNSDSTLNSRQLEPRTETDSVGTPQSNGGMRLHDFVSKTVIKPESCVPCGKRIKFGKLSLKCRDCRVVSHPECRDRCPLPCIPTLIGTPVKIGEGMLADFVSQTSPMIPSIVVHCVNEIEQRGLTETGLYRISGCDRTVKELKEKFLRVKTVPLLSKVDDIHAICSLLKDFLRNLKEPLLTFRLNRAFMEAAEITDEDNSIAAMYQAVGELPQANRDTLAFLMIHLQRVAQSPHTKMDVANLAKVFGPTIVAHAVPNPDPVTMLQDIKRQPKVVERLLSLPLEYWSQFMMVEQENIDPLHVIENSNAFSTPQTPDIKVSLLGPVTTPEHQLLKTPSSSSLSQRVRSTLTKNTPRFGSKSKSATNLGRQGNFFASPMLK

[19] = HIV-1 Vif–A3G interaction blockers – biochemical, TR-FRET, GST-Vif 1-94, biotin-A3G peptide, dose response retest, primary screen (AID 1117319); format: functional;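 also: TR-FRET signal of purified GST-Vif binding a biotinylated A3G peptide; inhibitors lower the FRET signal by blocking Vif and A3G binding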
[20] = viability inhibitors of stage V gametocytes – luminescence, dose response (AID 1117278); format: functional, cell-based;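 also: gametocytes exposed to compound for 24 hours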
[21] = viability loss in human Jurkat cells – cell-based, luminescence, cytotoxicity control for P. falciparum gametocyte viability project, dose response (AID 1117277); format: functional;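 also: potency reflects loss of cellular ATP meaning fewer viable cells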
[22] = biological target: Voltage-gated inwardly rectifying potassium channel KCNH2 (Homo sapiens, UniProt Q12809); experiment: concentration-dependent hERG rescue from blockers – cell-based, thallium flux, dose response (AID 2121); format: ADME
Chain of Voltage-gated inwardly rectifying potassium channel KCNH2 (Q12809 whole entry): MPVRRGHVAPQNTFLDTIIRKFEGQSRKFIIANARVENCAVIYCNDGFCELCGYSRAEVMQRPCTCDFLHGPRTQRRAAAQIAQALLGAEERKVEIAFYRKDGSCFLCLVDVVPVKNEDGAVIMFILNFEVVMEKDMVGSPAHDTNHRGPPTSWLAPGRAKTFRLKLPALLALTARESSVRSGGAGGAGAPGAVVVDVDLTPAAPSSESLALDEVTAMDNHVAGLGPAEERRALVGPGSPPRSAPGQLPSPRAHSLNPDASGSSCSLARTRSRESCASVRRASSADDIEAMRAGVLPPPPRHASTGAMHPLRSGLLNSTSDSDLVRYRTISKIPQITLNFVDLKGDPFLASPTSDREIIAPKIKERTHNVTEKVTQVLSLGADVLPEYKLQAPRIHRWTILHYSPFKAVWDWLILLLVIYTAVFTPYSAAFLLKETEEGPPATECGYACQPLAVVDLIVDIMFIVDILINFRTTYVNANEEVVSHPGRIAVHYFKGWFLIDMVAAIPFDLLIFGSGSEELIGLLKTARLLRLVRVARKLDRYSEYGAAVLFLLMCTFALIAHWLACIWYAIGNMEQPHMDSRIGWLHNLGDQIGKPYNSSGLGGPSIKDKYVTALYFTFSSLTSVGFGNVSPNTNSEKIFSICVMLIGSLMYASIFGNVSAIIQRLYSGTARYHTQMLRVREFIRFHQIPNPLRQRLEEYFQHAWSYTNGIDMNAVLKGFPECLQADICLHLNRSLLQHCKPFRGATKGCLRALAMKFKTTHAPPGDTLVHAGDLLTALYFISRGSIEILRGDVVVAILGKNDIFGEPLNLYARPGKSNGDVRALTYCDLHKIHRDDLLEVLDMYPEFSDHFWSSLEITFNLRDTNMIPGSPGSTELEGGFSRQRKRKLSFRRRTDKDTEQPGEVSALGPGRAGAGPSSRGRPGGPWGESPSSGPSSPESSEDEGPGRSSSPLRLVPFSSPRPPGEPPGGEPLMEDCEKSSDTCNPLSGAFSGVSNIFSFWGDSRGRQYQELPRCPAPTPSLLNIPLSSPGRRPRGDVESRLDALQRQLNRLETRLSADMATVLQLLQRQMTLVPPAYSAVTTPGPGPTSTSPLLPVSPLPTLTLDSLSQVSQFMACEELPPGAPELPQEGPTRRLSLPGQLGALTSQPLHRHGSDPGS

Chain of RNA-editing ligase 1, mitochondrial (P86926 whole entry): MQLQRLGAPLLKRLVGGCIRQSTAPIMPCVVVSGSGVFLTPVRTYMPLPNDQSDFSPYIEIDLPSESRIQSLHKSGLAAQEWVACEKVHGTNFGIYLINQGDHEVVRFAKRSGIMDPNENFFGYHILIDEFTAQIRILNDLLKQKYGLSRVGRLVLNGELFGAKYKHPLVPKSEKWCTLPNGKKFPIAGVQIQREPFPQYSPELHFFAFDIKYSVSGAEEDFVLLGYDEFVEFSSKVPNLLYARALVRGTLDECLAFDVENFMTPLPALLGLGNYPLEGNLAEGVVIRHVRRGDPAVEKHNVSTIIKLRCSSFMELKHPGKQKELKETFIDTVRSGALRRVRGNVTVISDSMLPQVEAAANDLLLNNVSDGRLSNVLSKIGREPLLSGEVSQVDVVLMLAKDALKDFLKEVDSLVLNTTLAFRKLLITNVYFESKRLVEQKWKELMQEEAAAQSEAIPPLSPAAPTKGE
Chain of Cytochrome P450 2C19 (P33261 whole entry): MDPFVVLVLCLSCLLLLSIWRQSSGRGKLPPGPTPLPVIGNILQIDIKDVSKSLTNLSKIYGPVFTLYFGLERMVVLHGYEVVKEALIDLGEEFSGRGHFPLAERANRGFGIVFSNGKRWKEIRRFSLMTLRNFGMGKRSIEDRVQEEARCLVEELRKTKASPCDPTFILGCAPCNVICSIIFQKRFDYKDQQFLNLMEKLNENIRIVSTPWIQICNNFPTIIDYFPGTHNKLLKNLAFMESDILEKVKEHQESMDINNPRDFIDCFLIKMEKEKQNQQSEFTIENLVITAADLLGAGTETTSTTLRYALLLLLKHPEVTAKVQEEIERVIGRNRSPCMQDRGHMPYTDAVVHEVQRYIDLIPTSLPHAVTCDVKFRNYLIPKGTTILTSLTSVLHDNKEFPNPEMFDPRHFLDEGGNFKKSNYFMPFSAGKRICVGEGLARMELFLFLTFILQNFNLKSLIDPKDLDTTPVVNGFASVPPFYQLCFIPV
Chain of FAD-linked sulfhydryl oxidase ALR (P55789 whole entry): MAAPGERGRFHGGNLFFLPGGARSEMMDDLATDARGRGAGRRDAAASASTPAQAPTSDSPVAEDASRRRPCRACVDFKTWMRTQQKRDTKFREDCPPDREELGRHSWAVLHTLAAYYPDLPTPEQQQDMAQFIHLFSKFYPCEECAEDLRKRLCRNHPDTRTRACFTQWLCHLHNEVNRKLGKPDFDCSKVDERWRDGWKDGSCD
Chain of Cytochrome P450 2D6 (P10635 whole entry): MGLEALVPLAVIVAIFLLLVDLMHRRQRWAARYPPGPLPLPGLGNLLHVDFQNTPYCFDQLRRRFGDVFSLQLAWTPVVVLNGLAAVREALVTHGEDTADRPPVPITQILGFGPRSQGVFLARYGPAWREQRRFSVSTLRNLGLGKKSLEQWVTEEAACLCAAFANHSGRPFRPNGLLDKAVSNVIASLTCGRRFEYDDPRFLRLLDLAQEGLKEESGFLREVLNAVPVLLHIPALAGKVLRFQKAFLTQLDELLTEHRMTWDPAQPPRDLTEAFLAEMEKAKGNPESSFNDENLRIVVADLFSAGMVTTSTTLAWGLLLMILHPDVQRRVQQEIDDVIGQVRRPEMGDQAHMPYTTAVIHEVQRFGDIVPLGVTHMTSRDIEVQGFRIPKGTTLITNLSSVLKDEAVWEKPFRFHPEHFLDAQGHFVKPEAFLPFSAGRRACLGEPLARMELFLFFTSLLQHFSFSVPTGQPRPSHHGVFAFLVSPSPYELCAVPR
Chain of Cytochrome P450 3A4 (P08684 whole entry): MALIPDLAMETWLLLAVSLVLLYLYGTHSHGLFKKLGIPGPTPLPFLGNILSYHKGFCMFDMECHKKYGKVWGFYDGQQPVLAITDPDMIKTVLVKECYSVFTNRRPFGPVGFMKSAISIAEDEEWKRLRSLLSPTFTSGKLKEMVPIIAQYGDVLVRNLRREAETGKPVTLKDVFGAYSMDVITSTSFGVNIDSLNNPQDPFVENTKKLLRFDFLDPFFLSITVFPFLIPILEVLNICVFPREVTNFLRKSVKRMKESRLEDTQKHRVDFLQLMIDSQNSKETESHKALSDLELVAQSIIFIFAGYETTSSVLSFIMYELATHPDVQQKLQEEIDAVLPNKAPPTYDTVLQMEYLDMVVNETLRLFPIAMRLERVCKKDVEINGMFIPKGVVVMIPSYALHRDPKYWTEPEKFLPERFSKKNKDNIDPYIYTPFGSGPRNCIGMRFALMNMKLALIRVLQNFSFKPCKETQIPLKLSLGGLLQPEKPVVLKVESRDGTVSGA
Chain of Glutathione-S-transferase (Q26513 whole entry): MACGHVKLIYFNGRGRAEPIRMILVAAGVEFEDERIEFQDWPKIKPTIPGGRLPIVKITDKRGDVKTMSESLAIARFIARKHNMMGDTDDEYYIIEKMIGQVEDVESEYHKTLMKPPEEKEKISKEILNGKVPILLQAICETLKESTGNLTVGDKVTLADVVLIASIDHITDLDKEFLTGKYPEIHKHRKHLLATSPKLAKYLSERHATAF
Chain of Caspase-9 (P55211 1-315 limits assumed): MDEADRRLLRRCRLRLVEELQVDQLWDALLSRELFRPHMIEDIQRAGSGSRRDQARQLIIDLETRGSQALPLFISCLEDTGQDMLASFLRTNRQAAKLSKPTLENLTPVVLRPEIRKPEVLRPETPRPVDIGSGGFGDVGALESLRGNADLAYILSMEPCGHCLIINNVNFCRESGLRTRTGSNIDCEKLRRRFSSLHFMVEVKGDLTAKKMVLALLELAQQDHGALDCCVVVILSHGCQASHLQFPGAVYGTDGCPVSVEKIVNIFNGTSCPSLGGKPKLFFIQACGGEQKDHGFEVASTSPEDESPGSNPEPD
Chain of Caspase-9 (P55211 331-416 limits assumed): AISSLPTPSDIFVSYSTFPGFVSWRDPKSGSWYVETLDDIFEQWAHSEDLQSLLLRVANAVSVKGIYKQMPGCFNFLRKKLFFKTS
Chain of Caspase-8 (Q14790 217-374 limits assumed): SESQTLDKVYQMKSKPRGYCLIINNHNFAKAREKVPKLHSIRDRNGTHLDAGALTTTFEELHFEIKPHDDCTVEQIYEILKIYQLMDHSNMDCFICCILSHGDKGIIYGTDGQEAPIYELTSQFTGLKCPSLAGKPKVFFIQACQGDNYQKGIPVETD
Chain of Caspase-8 (Q14790 385-479 limits assumed): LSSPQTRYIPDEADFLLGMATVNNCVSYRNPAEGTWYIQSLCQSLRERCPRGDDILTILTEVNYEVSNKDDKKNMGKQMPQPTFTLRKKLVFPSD

CC(C)CNc1nc(-c2ccccc2)nc2ccccc12
IC50 [1]: 14.5 µM (active)
IC50 [2]: 58.5 µM (inactive)

Clc1cccc(-c2cc(NCCCN3CCCCC3)c3ccccc3n2)c1
IC50 [1]: 1.12 µM (active)
IC50 [2]: 1.85 µM (active)

COC(=O)C1=C(C)N(Cc2ccc(C(F)(F)F)cc2)C(NCc2ccc3c(c2)OCO3)=NC1c1ccccc1C(F)(F)F (stereo not drawn)
IC50 [3]: > 96.6 µM (inactive)

C=CCn1c(C)c(C(C)=O)c(N2CCN(c3ccccc3)CC2)nc1=S
AC50 [4]: 5.62 µM (inconclusive)
AC50 [5]: 22.4 µM (inconclusive)
IC50 [6]: 19.8 µM (active)
AC50 [7]: 25.1 µM (inconclusive)

Cc1cc(C)n(-c2nc(NCC(C)O)c3c4c(sc3n2)CCCC4)n1 (stereo not drawn)
IC50 [8]: 15 µM (active)

Nc1cc2nn(-c3ccccc3)nc2cc1Cl
AC50 [9]: 12.7 µM (active)
IC50 [10]: > 50 µM (not active)
AC50 [11]: 29.9 µM (active)
EC50 [12]: 3.48 µM (active)
IC50 [13]: > 67.5 µM (inactive)
EC50 [14]: > 67.5 µM (inactive)
AC50 [15]: 16.5 µM (active)
AC50 [16]: 2 µM (active)

COc1cc(/C=N/NC2=NC(=O)C(c3ccccc3)S2)ccc1O (stereo not drawn)
AC50 [17]: 0.249 µM (active)
IC50 [18]: 44.3 µM (active)
IC50 [19]: > 100 µM (active)

CC(C)CSc1oc(-c2ccco2)nc1S(=O)(=O)c1ccccc1
IC50 [20]: > 109 µM (inactive)
IC50 [21]: > 83.3 µM (inactive)

COc1ccc(OC)c(NC(=O)C(=O)NNC(=O)c2cccs2)c1
EC50 [22]: 3.5 µM (active)

O=C(Nc1ccc(S(=O)(=O)N2CCCC2)cc1)C1CC(=O)N(c2ccccc2)C1 (stereo not drawn)
IC50 [20]: > 109 µM (inactive)
IC50 [21]: > 83.3 µM (inactive)

CCNC1=NC(c2ccccc2C(F)(F)F)C(C(=O)OC)=C(C)N1Cc1ccc(C(F)(F)F)cc1 (stereo not drawn)
IC50 [3]: > 96.6 µM (inactive)

O=C(NC(=S)Nc1cc(C(F)(F)F)ccc1N1CCOCC1)c1ccco1
EC50 [22]: 4.72 µM (active)

From ChEMBL document CHEMBL1201862, “PubChem BioAssay data set” (2004)
